According to the supplement of paper PMC10307832:

Tests used:
Assay in all cases: relative viability (nuclei count vs DMSO), 5 days (fraction); higher = more cells survive
Silmitasertib + AZD7762 = compound: O=C(O)c1ccc2c(c1)nc(Nc1cccc(Cl)c1)c1ccncc12 [Silmitasertib] + NC(=O)Nc1cc(-c2cccc(F)c2)sc1C(=O)N[C@H]1CCCNC1 [AZD7762] (partner 0.2 µM)
Method in brief: (§1)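 For relative viability, nuclei counts in treated wells were divided by those in vehicle wells. Lung cancer cell lines had been pin-tool dosed in 1536-well plates the day after seeding and cultured for 5 days, then fixed and stained in one step (final 0.05% Triton X-100, 1% formaldehyde, 1 ug/ml Hoechst) and imaged at 4×. Doses were one drug alone or a fixed anchor-drug dose plus five library-drug doses (not always all listed) in √10 steps, and values are duplicate-plate medians.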

[1] = compound: O=C(O)c1ccc2c(c1)nc(Nc1cccc(Cl)c1)c1ccncc12 [Silmitasertib] + CC1(C)CCC(c2ccc(Cl)cc2)=C(CN2CCN(c3ccc(C(=O)NS(=O)(=O)c4ccc(N[C@H](CCN5CCOCC5)CSc5ccccc5)c(S(=O)(=O)C(F)(F)F)c4)cc3)CC2)C1 [Navitoclax] (partner 0.5 µM)
Method in brief: as §1

[2] = compound: O=C(O)c1ccc2c(c1)nc(Nc1cccc(Cl)c1)c1ccncc12 [Silmitasertib] + CCNC(=O)c1noc(-c2cc(C(C)C)c(O)cc2O)c1-c1ccc(CN2CCOCC2)cc1 [Luminespib] (partner 0.01 µM)
Method in brief: as §1

[3] = compound: O=C(O)c1ccc2c(c1)nc(Nc1cccc(Cl)c1)c1ccncc12 [Silmitasertib] + Nc1ncn([C@H]2C[C@H](O)[C@@H](CO)O2)c(=O)n1 [Decitabine] (partner 2 µM)
Method in brief: as §1

[4] = compound: O=C(O)c1ccc2c(c1)nc(Nc1cccc(Cl)c1)c1ccncc12 [Silmitasertib] + CC(=O)Nc1cccc(-n2c(=O)n(C3CC3)c(=O)c3c(Nc4ccc(I)cc4F)n(C)c(=O)c(C)c32)c1 [Trametinib] (partner 0.02 µM)
Method in brief: as §1

Cell Line	relative viability (Silmitasertib + AZD7762; first compound 0.04 µM)	relative viability (Silmitasertib + AZD7762; first compound 0.4 µM)	relative viability (Silmitasertib + AZD7762; first compound 1.265 µM)	relative viability (Silmitasertib + AZD7762; first compound 4 µM)	relative viability ([1]; first compound 0.04 µM)	relative viability ([1]; first compound 0.4 µM)	relative viability ([1]; first compound 1.265 µM)	relative viability ([1]; first compound 4 µM)	relative viability ([2]; first compound 0.04 µM)	relative viability ([2]; first compound 0.4 µM)	relative viability ([2]; first compound 1.265 µM)	relative viability ([2]; first compound 4 µM)	relative viability ([3]; first compound 0.04 µM)	relative viability ([3]; first compound 0.4 µM)	relative viability ([3]; first compound 1.265 µM)	relative viability ([3]; first compound 4 µM)	relative viability ([4]; first compound 0.04 µM)	relative viability ([4]; first compound 0.4 µM)	relative viability ([4]; first compound 1.265 µM)	relative viability ([4]; first compound 4 µM)
201T	0.636	0.372	0.754	0.682	1.21	1.19	1.26	1.31	1.03	1.03	1.12	1.28	0.851	0.841	0.847	0.903	0.738	0.709	0.804	0.893
A549	–	–	–	–	1.44	1.16	1.27	1.04	–	–	–	–	0.244	–	0.27	0.158	–	–	–	–
A-427	0.852	0.555	0.562	0.445	1.05	–	0.943	0.566	1.04	–	1.06	0.656	0.525	0.554	0.461	0.421	0.952	0.595	0.785	0.497
ABC-1	0.948	0.824	0.8	0.567	–	–	–	–	0.889	0.696	0.332	0.312	1.44	1.05	0.686	0.922	–	–	–	–
BEN	0.935	0.674	0.625	0.568	0.0617	0.0687	0.059	0.0431	0.484	–	0.623	0.284	0.866	0.685	0.537	0.656	1.14	0.856	1.02	0.968
CAL-12T	0.656	0.7	0.805	0.77	1.39	1.16	1.19	0.387	0.363	0.531	0.278	0.125	–	–	–	–	0.444	0.3	0.394	0.284
COR-L23	–	–	–	–	1.1	0.982	1.06	0.968	0.716	0.66	0.646	0.678	0.495	0.507	0.501	0.368	0.737	0.369	0.497	0.456
COR-L 105	–	–	–	–	0.999	0.691	0.71	0.563	0.709	0.767	0.541	0.447	0.626	0.599	0.672	0.454	0.491	0.434	0.401	0.478
ChaGo-K-1	0.905	0.618	0.85	0.913	1.45	0.917	0.84	0.574	0.586	0.57	0.566	0.607	0.526	0.486	0.463	0.509	0.938	0.704	0.821	0.907
EKVX	0.834	–	0.682	0.642	0.874	0.648	0.681	0.681	0.986	0.605	0.718	0.884	0.421	–	0.374	0.299	0.385	–	0.269	0.47
EMC-BAC-2	1.22	1.04	1.08	0.662	1.24	1.03	1.14	1.09	1.22	1.13	0.876	0.39	1.01	0.951	0.93	0.819	0.977	0.845	0.684	0.698
EPLC-272H	0.232	–	0.275	0.217	1.09	–	0.747	0.807	1.05	–	0.18	0.181	0.475	–	0.296	0.348	0.319	–	0.214	0.279
H3255	1.09	0.808	0.807	0.77	0.593	0.294	0.347	0.208	0.893	0.849	1.02	0.504	0.563	0.703	0.543	0.532	0.651	0.604	0.527	0.565
HARA	0.411	0.289	0.589	0.443	1.16	0.88	0.944	0.984	0.738	0.724	0.396	0.646	0.698	0.554	0.494	0.355	0.97	0.594	0.419	0.487
HCC-15	1.19	0.884	1.15	0.875	0.745	0.556	0.548	0.438	0.368	0.204	0.281	0.207	0.703	0.536	0.404	0.292	0.407	0.343	0.275	0.286
HCC-44	0.978	1.04	1.08	0.978	0.926	0.874	0.892	0.928	1.14	1.07	1.05	1.09	0.933	0.929	1.01	0.825	1.15	0.906	1.02	1.07
HCC-78	0.783	0.469	0.405	0.475	0.892	0.672	0.757	0.65	–	–	–	–	0.64	0.603	0.381	0.613	0.794	0.615	0.537	0.656
HCC-366	0.254	0.188	0.371	0.147	1.15	–	0.921	0.82	–	–	–	–	0.37	0.347	0.31	0.379	0.354	0.337	0.318	0.255
HCC-827	0.234	–	0.214	0.205	1.11	–	1.09	1.19	0.616	–	0.524	0.355	0.313	–	0.153	0.292	0.604	–	0.406	0.422
HOP-62	0.554	–	0.663	0.385	0.996	–	0.961	0.849	0.954	–	1.04	0.969	0.24	–	0.203	0.211	0.408	–	0.388	0.549

Cell Line	relative viability (Silmitasertib + AZD7762; first compound 0.04 µM)	relative viability (Silmitasertib + AZD7762; first compound 0.4 µM)	relative viability (Silmitasertib + AZD7762; first compound 1.265 µM)	relative viability (Silmitasertib + AZD7762; first compound 4 µM)	relative viability ([1]; first compound 0.04 µM)	relative viability ([1]; first compound 0.4 µM)	relative viability ([1]; first compound 1.265 µM)	relative viability ([1]; first compound 4 µM)	relative viability ([2]; first compound 0.04 µM)	relative viability ([2]; first compound 0.4 µM)	relative viability ([2]; first compound 1.265 µM)	relative viability ([2]; first compound 4 µM)	relative viability ([3]; first compound 0.04 µM)	relative viability ([3]; first compound 0.4 µM)	relative viability ([3]; first compound 1.265 µM)	relative viability ([3]; first compound 4 µM)	relative viability ([4]; first compound 0.04 µM)	relative viability ([4]; first compound 0.4 µM)	relative viability ([4]; first compound 1.265 µM)	relative viability ([4]; first compound 4 µM)
LC-2-ad	0.95	0.811	0.797	0.494	0.462	0.383	0.392	0.261	1.22	1.03	1.21	1.09	0.836	0.794	0.689	0.665	0.987	0.813	0.892	0.772
LCLC-97TM1	0.418	–	0.191	0.128	0.504	–	0.484	0.279	0.892	–	0.691	0.442	0.236	–	0.209	0.251	0.217	–	0.156	0.145
LCLC-103H	0.839	0.803	0.759	0.588	–	–	–	–	0.909	0.707	0.751	0.548	0.791	0.655	0.616	0.556	0.689	0.71	0.648	0.636
LK-2	0.344	–	0.362	0.219	0.854	0.696	0.732	0.576	0.168	–	0.174	0.169	0.312	–	0.194	0.21	0.674	–	0.678	0.702
NCI-H358	0.633	0.574	0.595	0.567	–	–	–	–	0.39	–	0.22	0.192	0.22	0.217	0.199	0.199	0.163	0.127	0.145	0.143
NCI-H520	–	–	–	–	1.11	0.917	1.04	0.863	0.242	0.232	0.242	0.289	0.586	0.578	0.528	0.502	0.832	0.668	0.524	0.626
NCI-H522	0.89	0.841	0.822	0.819	–	–	–	–	1.71	0.859	0.938	1.24	0.653	0.62	0.69	0.655	0.715	0.68	0.814	0.817
NCI-H650	1.17	0.524	0.907	0.982	–	–	–	–	0.886	0.599	0.436	0.457	0.309	0.315	0.322	0.341	1.01	0.567	0.666	1.21
NCI-H661	–	–	–	–	–	–	–	–	0.959	1.04	0.838	0.825	0.636	0.617	0.548	0.441	0.645	0.605	0.667	0.615
NCI-H1650	–	–	–	–	1.38	1.24	0.695	0.414	0.187	0.203	0.192	0.21	0.525	0.419	0.315	0.254	0.769	0.56	0.428	0.256
NCI-H1703	0.136	–	0.153	0.146	1.44	1.01	1.15	0.807	–	–	–	–	–	–	–	–	–	–	–	–
NCI-H2009	–	–	–	–	1.15	1.09	1.19	0.788	1.06	1.1	0.971	0.604	0.382	0.39	0.392	0.371	0.342	0.271	0.254	0.239
NCI-H2023	–	–	–	–	0.999	1.01	0.96	0.73	0.746	0.535	0.683	0.684	0.239	0.225	0.208	0.195	0.728	0.569	0.373	0.535
NCI-H2228	–	–	–	–	0.981	0.579	0.586	1.16	0.178	–	0.145	0.135	–	–	–	–	0.554	0.375	0.456	0.464
NCI-H2342	0.471	–	0.387	0.401	–	–	–	–	0.708	0.729	0.715	0.778	0.791	–	0.79	0.743	0.909	–	0.781	0.811
SK-LU-1	–	–	–	–	0.984	0.532	0.671	0.217	0.21	0.204	0.187	0.179	0.708	0.622	0.297	0.428	0.733	0.46	0.298	0.289
SK-MES-1	–	–	–	–	1.27	1.1	1.15	0.576	0.821	0.801	0.397	0.213	0.396	0.382	0.328	0.209	0.589	0.477	0.535	0.469
SW 1573	–	–	–	–	1.07	1.02	0.824	0.815	0.243	0.215	0.179	0.164	0.515	0.406	0.441	0.372	0.529	0.54	0.478	0.439
UMC-11	–	–	–	–	0.337	0.278	0.207	0.162	1.2	1.1	0.861	0.613	0.688	0.464	0.587	0.541	0.73	0.65	0.353	0.403
